Measured values published in patent publication US9606123B2, “Compositions and methods for diagnosing and monitoring ovarian cancer progression and treatment” (University of Virginia Patent Foundation, priority 2013, dated 2017).
“Also recorded” adds a separate entry of the source.

Assays:
A2780Cis cells = assay: Tumor burden in A2780Cis-tumored mice treated with carboplatin; type: in vivo, Athymic nude mice; details: mice with platinum-resistant A2780Cis tumors, 25 mg/kg carboplatin weekly IP
Method: (§1) FIG. 3. Carboplatin indirectly regulates mesothelial VCAM-1 expression by affecting tumor burden. Athymic nude mice were given an intraperitoneal (IP) injection of A2780 (n=3 per time point) or A2780Cis (n=3 per time point) cells or saline (control, n=2). One week following tumor initiation a group of mice was imaged to obtain baseline values; the remaining mice were treated with 25 mg/kg carboplatin weekly. (A) SPECT/CT images were collected weekly starting 1 week after tumor initiation (week 0); weeks 0, 1 and 2 indicate that time after carboplatin treatment. […] Heart and omentum were removed from each cohort of mice weekly post-carboplatin treatment (x-axis, 0=1 week tumor, no treatment) and the percent injected dose of radioactivity per gram of tissue determined as described above (see FIG. 2). n=3 for each cohort, C=control animals. […]
(§2) To assess VCAM-1 as a marker of chemosensitivity, two cohorts of mice were injected with an isogenic paired cell line with one being resistant and the other sensitive to platinum: The first cohort (n=9) was injected with A2780, platinum sensitive cell line and the second (n=9) with A2780Cis platinum resistant cell line. […] After each timepoint, n=3 animals from each cohort were sacrificed and VCAM-In^111 uptake quantified via biodistribution as described above.

A2780 cells = assay: Tumor burden in mice bearing platinum-sensitive cells treated with carboplatin; type: in vivo, Athymic nude mice; details: 25 mg/kg carboplatin weekly IP
Method: as §1, §2

[1] = system: VCAM-1 expression in mesothelial cells (LP9); assay: Western analysis of VCAM-1 expression in mesothelial cells (LP9) treated with carboplatin; type: cell-based; details: LP9 human mesothelial cells; up to 1 μg/ml carboplatin for 24 hours
[2] = cited from earlier work

## N.N.O=C([O-])C1(C(=O)[O-])CCC1.[Pt+2] [carboplatin, cis-Diamine(1,1-cyclobutanedicarboxylato)platinum(II)]
A2780Cis cells
  Tumor growth / tumor burden under carboplatin: neither was altered; also recorded: continued to grow
A2780 cells
  Tumor burden following carboplatin treatment: decreases
[1]
  Change in VCAM-1 expression (Western): no change
[2]
  Solubility in water: 25 mM
